Assay results: article PMC11822212, “High-throughput screening identifies Aurora kinase B as a critical therapeutic target for Merkel cell carcinoma” (Nature Communications, 2025)
Values joined by “and” are separate entries in the source; they are usually repeats but may differ in a detail not shown here. Identical values can stand only once. Like-named read-outs stand apart in the source and are kept apart here.

Legend:
Assay in all cases: qHTS cell viability (CellTiter-Glo, 72 h; primary and follow-up small molecule screen)
Assay type in all cases: cell-based, human
WAGA cells (VP-MCC) = system: WAGA cells (VP-MCC)
MKL-1 cells (VP-MCC) = system: MKL-1 cells (VP-MCC)
MCC13 cells (VN-MCC) = system: MCC13 cells (VN-MCC)
MCC26 cells (VN-MCC) = system: MCC26 cells (VN-MCC)
MKL-2 cells (VP-MCC) = system: MKL-2 cells (VP-MCC)
UISO cells (VN-MCC) = system: UISO cells (VN-MCC)
[1] = follow-up screen, WAGA, replicate 1
[2] = follow-up screen, WAGA, replicate 2
[3] = follow-up screen, WAGA, replicate 3
[4] = follow-up screen, MKL-1, replicate 1
[5] = follow-up screen, MKL-1, replicate 2
[6] = follow-up screen, MKL-1, replicate 3
[7] = follow-up screen, MCC13, replicate 1
[8] = follow-up screen, MCC13, replicate 2
[9] = follow-up screen, MCC13, replicate 3
[10] = follow-up screen, MCC26, replicate 1
[11] = follow-up screen, MCC26, replicate 2
[12] = follow-up screen, MCC26, replicate 3
[13] = follow-up screen, MKL-2, replicate 1
[14] = follow-up screen, MKL-2, replicate 2
[15] = follow-up screen, MKL-2, replicate 3
[16] = follow-up screen, UISO, replicate 1
[17] = follow-up screen, UISO, replicate 2
[18] = follow-up screen, UISO, replicate 3

SMILES | Area under the dose-response curve (AUC) WAGA Replicate 1 (WAGA cells (VP-MCC); [1]) | Area under the dose-response curve (AUC) WAGA Replicate 2 (WAGA cells (VP-MCC); [2]) | Area under the dose-response curve (AUC) WAGA Replicate 3 (WAGA cells (VP-MCC); [3]) | Area under the dose-response curve (AUC) MKL-1 Replicate 1 (MKL-1 cells (VP-MCC); [4]) | Area under the dose-response curve (AUC) MKL-1 Replicate 2 (MKL-1 cells (VP-MCC); [5]) | Area under the dose-response curve (AUC) MKL-1 Replicate 3 (MKL-1 cells (VP-MCC); [6]) | Area under the dose-response curve (AUC) MCC13 Replicate 1 (MCC13 cells (VN-MCC); [7]) | Area under the dose-response curve (AUC) MCC13 Replicate 2 (MCC13 cells (VN-MCC); [8]) | Area under the dose-response curve (AUC) MCC13 Replicate 3 (MCC13 cells (VN-MCC); [9]) | Area under the dose-response curve (AUC) MCC26 Replicate 1 (MCC26 cells (VN-MCC); [10]) | Area under the dose-response curve (AUC) MCC26 Replicate 2 (MCC26 cells (VN-MCC); [11]) | Area under the dose-response curve (AUC) MCC26 Replicate 3 (MCC26 cells (VN-MCC); [12]) | Area under the dose-response curve (AUC) MKL-2 Replicate 1 (MKL-2 cells (VP-MCC); [13]) | Area under the dose-response curve (AUC) MKL-2 Replicate 2 (MKL-2 cells (VP-MCC); [14]) | Area under the dose-response curve (AUC) MKL-2 Replicate 3 (MKL-2 cells (VP-MCC); [15]) | Area under the dose-response curve (AUC) UISO Replicate 1 (UISO cells (VN-MCC); [16]) | Area under the dose-response curve (AUC) UISO Replicate 2 (UISO cells (VN-MCC); [17]) | Area under the dose-response curve (AUC) UISO Replicate 3 (UISO cells (VN-MCC); [18]) | other results
COc1ccc2cc3[n+](cc2c1OC)CCc1cc2c(cc1-3)OCO2 [Berberine] | 314.6 | 371.3 | 307.0 | 311.8 | 310.8 | 306.9 | 398.2 | 416.5 | 443.1 | 384.2 | 304.3 | 382.1 | 282.0 | 271.5 | 295.9 | 307.5 | 333.0 | 307.0 | 
C[C@H]1CCC/C=C/[C@@H]2C[C@H](OC(=O)CN(C)C)C[C@H]2[C@H](O)/C=C/C(=O)O1 [Breflate] |  |  |  |  |  |  |  |  |  |  |  |  |  |  |  |  |  |  | Area under the dose-response curve (AUC) WAGA Replicate 1 (WAGA cells (VP-MCC)): 298.7; Area under the dose-response curve (AUC) WAGA Replicate 2 (WAGA cells (VP-MCC)): 274.6; Area under the dose-response curve (AUC) WAGA Replicate 3 (WAGA cells (VP-MCC)): 278.0; Area under the dose-response curve (AUC) MKL-1 Replicate 1 (MKL-1 cells (VP-MCC)): 284.7; Area under the dose-response curve (AUC) MKL-1 Replicate 2 (MKL-1 cells (VP-MCC)): 297.0; Area under the dose-response curve (AUC) MKL-1 Replicate 3 (MKL-1 cells (VP-MCC)): 286.8; Area under the dose-response curve (AUC) MCC13 Replicate 1 (MCC13 cells (VN-MCC)): 301.4; Area under the dose-response curve (AUC) MCC13 Replicate 2 (MCC13 cells (VN-MCC)): 313.0; Area under the dose-response curve (AUC) MCC13 Replicate 3 (MCC13 cells (VN-MCC)): 291.5; Area under the dose-response curve (AUC) MCC26 Replicate 1 (MCC26 cells (VN-MCC)): 324.6; Area under the dose-response curve (AUC) MCC26 Replicate 2 (MCC26 cells (VN-MCC)): 334.5; Area under the dose-response curve (AUC) MCC26 Replicate 3 (MCC26 cells (VN-MCC)): 272.7; Area under the dose-response curve (AUC) MKL-2 Replicate 1 (MKL-2 cells (VP-MCC)): 314.0; Area under the dose-response curve (AUC) MKL-2 Replicate 2 (MKL-2 cells (VP-MCC)): 292.1; Area under the dose-response curve (AUC) MKL-2 Replicate 3 (MKL-2 cells (VP-MCC)): 266.7; Area under the dose-response curve (AUC) UISO Replicate 1 (UISO cells (VN-MCC)): 287.6; Area under the dose-response curve (AUC) UISO Replicate 2 (UISO cells (VN-MCC)): 297.1; Area under the dose-response curve (AUC) UISO Replicate 3 (UISO cells (VN-MCC)): 295.8
C[C@]12CC[C@H](O)C[C@H]1CC[C@@H]1[C@@H]2CC[C@]2(C)[C@@H](c3ccc(=O)oc3)CC[C@]12O [Bufalin] |  |  |  |  |  |  |  |  |  |  |  |  |  |  |  |  |  |  | Area under the dose-response curve (AUC) (WAGA cells (VP-MCC)): 311.5 and 289.3 and 286.6; Area under the dose-response curve (AUC) (MKL-1 cells (VP-MCC)): 317.9 and 310.4 and 298.2; Area under the dose-response curve (AUC) (MCC13 cells (VN-MCC)): 246.2 and 243.7 and 237.7; Area under the dose-response curve (AUC) (MCC26 cells (VN-MCC)): 270.7 and 302.4 and 244.7; Area under the dose-response curve (AUC) (MKL-2 cells (VP-MCC)): 316.9 and 287.6 and 264.0; Area under the dose-response curve (AUC) (UISO cells (VN-MCC)): 235.9 and 234.7 and 201.8
CCCNC(=O)[C@H]1O[C@@H]1C(=O)N[C@H](C(=O)N1CCC[C@H]1C(=O)OC)C(C)CC (stereo partly drawn) [CA-074 Me] |  |  |  |  |  |  |  |  |  |  |  |  |  |  |  |  |  |  | Area under the dose-response curve (AUC) WAGA Replicate 1 (WAGA cells (VP-MCC)): 383.1; Area under the dose-response curve (AUC) WAGA Replicate 2 (WAGA cells (VP-MCC)): 375.3; Area under the dose-response curve (AUC) WAGA Replicate 3 (WAGA cells (VP-MCC)): 378.5; Area under the dose-response curve (AUC) MKL-1 Replicate 1 (MKL-1 cells (VP-MCC)): 343.4; Area under the dose-response curve (AUC) MKL-1 Replicate 2 (MKL-1 cells (VP-MCC)): 329.7; Area under the dose-response curve (AUC) MKL-1 Replicate 3 (MKL-1 cells (VP-MCC)): 317.3; Area under the dose-response curve (AUC) MCC13 Replicate 1 (MCC13 cells (VN-MCC)): 449.3; Area under the dose-response curve (AUC) MCC13 Replicate 2 (MCC13 cells (VN-MCC)): 470.8; Area under the dose-response curve (AUC) MCC13 Replicate 3 (MCC13 cells (VN-MCC)): 430.6; Area under the dose-response curve (AUC) MCC26 Replicate 1 (MCC26 cells (VN-MCC)): 401.2; Area under the dose-response curve (AUC) MCC26 Replicate 2 (MCC26 cells (VN-MCC)): 420.5; Area under the dose-response curve (AUC) MCC26 Replicate 3 (MCC26 cells (VN-MCC)): 371.8; Area under the dose-response curve (AUC) MKL-2 Replicate 1 (MKL-2 cells (VP-MCC)): 305.9; Area under the dose-response curve (AUC) MKL-2 Replicate 2 (MKL-2 cells (VP-MCC)): 306.4; Area under the dose-response curve (AUC) MKL-2 Replicate 3 (MKL-2 cells (VP-MCC)): 348.6; Area under the dose-response curve (AUC) UISO Replicate 1 (UISO cells (VN-MCC)): 368.5; Area under the dose-response curve (AUC) UISO Replicate 2 (UISO cells (VN-MCC)): 355.5; Area under the dose-response curve (AUC) UISO Replicate 3 (UISO cells (VN-MCC)): 334.3
Cc1nc2ccc(-n3ncc(C(=O)c4cc5ccccc5[nH]4)c3N)cc2[nH]1 [CH5183284 (Debio-1347)] |  |  |  |  |  |  |  |  |  |  |  |  |  |  |  |  |  |  | Area under the dose-response curve (AUC) (WAGA cells (VP-MCC)): 493.1 and 498.3 and 457.6; Area under the dose-response curve (AUC) (MKL-1 cells (VP-MCC)): 508.7 and 488.2 and 500.7; Area under the dose-response curve (AUC) (MCC13 cells (VN-MCC)): 509.3 and 491.7 and 491.1; Area under the dose-response curve (AUC) (MCC26 cells (VN-MCC)): 405.6 and 395.0 and 403.7; Area under the dose-response curve (AUC) (MKL-2 cells (VP-MCC)): 485.9 and 459.2 and 468.2; Area under the dose-response curve (AUC) (UISO cells (VN-MCC)): 433.7 and 424.4 and 430.0
CC[C@@]1(O)C(=O)OCc2c1cc1n(c2=O)Cc2cc3ccccc3nc2-1 [Camptothecin] | 164.4 | 180.7 | 159.3 | 168.7 | 185.9 | 170.7 | 224.5 | 221.7 | 254.2 | 203.3 | 207.4 | 184.6 | 160.6 | 161.3 | 224.5 | 151.6 | 176.2 | 177.2 | 
COCc1c(C(C)C)nc(C(C)C)c(/C=C/[C@@H](O)C[C@@H](O)CC(=O)O)c1-c1ccc(F)cc1 [Cerivastatin sodium] | 385.6 | 358.6 | 363.6 | 337.1 | 326.8 | 335.0 | 319.0 | 316.5 | 320.7 | 312.2 | 285.4 | 322.6 | 362.8 | 331.4 | 356.5 | 255.3 | 261.7 | 240.8 | 
COc1ccc2c(c[n+](C)c3c4cc5c(cc4ccc23)OCO5)c1OC [Chelerythrine chloride] | 387.5 | 415.9 | 372.6 | 325.9 | 295.9 | 331.6 | 404.1 | 410.9 | 433.8 | 384.2 | 379.8 | 390.1 | 317.6 | 350.5 | 338.8 | 417.2 | 419.6 | 390.8 | 
